The assay has as its target T1, human CCR10 (Homo sapiens, UniProt P46092).
T1 construct: expressed in transfected cells; host or cells: KJMGER8 cells (Namalwa cell-derived line), beta-estradiol-induced; hCCR10G16 cells
T1 sequence (P46092 1-362): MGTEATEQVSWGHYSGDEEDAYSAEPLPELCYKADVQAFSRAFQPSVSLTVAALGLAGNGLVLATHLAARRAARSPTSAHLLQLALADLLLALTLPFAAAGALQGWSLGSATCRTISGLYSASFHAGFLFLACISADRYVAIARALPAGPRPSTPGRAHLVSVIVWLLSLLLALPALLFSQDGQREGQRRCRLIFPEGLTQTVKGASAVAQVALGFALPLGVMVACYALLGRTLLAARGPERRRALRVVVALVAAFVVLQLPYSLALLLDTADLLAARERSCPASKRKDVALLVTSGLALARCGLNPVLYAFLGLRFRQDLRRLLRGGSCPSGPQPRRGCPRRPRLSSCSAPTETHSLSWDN
In words: CCR10 antagonistic effect: calcium assay of human CCR10 (CTACK-induced increase of intracellular calcium in hCCR10G16 cells). The format is cell-based. As to conditions: at a concentration of not more than 1000 nmol/L; human CCR10-expressing hCCR10G16 cells, 300 nmol/L CTACK added; read-out: inhibition of increase in the calcium ion concentration. Summed up:
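Inhibition of CTACK-evoked calcium flux (max minus min Fluo-3 fluorescence over ~5 min, FDSS) was calculated against control in β-estradiol-induced human CCR10/Gα16 KJMGER8 cells, after 30 min compound preincubation at 37 °C; CTACK added from a 300 nmol/L solution.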

For `Cc1c(S(N)(=O)=O)ncc(C(=O)N2CCC3(CC2)COc2ccccc23)c1NCc1ccccc1` [Compound 261, 4-(benzylamino)-3-methyl-5-(2H-spiro[benzofuran-3,4′-piperidine]-1′-ylcarbonyl)pyridine-2-sulfonamide], the inhibition at up to 1 µM was no less than 50%.

Turning to `COC1(c2ccc(F)cc2)CCN(C(=O)c2cnc(S(N)(=O)=O)c(C)c2NCc2ccccc2)CC1` [Compound 262, 4-(benzylamino)-5-[4-(4-fluorophenyl)-4-methoxypiperidine-1-carbonyl]-3-methylpyridine-2-sulfonamide], the inhibition at up to 1 µM is no less than 50%.

Consider `Cc1ccc(Nc2c(C(=O)N3CCC(c4ccc(F)cc4)CC3)cnc(S(=O)(=O)Nc3ccon3)c2C)cc1C` [Compound 263, 4-(3,4-dimethylphenylamino)-5-[4-(4-fluorophenyl)piperidine-1-carbonyl]-N-(isoxazol-3-yl)-3-methylpyridine-2-sulfonamide], for which the inhibition at up to 1 µM is no less than 50%.

Regarding `Cc1cccc(Nc2c(C(=O)N3CCC(c4ccc(F)cc4)CC3)cnc(S(=O)(=O)Nc3ccon3)c2C)c1F` [Compound 264, 4-(2-fluoro-3-methylphenylamino)-5-[4-(4-fluorophenyl)piperidine-1-carbonyl]-N-(isoxazol-3-yl)-3-methylpyridine-2-sulfonamide], the inhibition at up to 1 µM was no less than 50%.

Take `Cc1c(S(=O)(=O)Nc2ccon2)ncc(C(=O)N2CCC(c3ccc(F)cc3)CC2)c1Nc1cccc(Cl)c1F` [Compound 265, 4-(3-chloro-2-fluorophenylamino)-5-[4-(4-fluorophenyl)piperidine-1-carbonyl]-N-(isoxazol-3-yl)-3-methylpyridine-2-sulfonamide]: the inhibition at up to 1 µM was no less than 50%.

Consider `Cc1cc(NS(=O)(=O)c2ncc(C(=O)N3CCC(c4ccc(F)cc4)CC3)c(Nc3ccc(F)cc3C)c2C)sn1` [Compound 266, 4-(4-fluoro-2-methylphenylamino)-5-[4-(4-fluorophenyl)piperidine-1-carbonyl]-3-methyl-N-(3-methylisothiazol-5-yl)pyridine-2-sulfonamide], for which the inhibition at up to 1 µM is no less than 50%.

In the case of `Cc1cc(NS(=O)(=O)c2ncc(C(=O)N3CCC(c4ccc(F)cc4)CC3)c(Nc3cccc(F)c3)c2C)sn1` [Compound 267, 5-[4-(4-fluorophenyl)piperidine-1-carbonyl]-4-(3-fluorophenylamino)-3-methyl-N-(3-methylisothiazol-5-yl)pyridine-2-sulfonamide], the inhibition at up to 1 µM is no less than 50%.

In the case of `COc1ccc(F)c(Nc2c(C(=O)N3CCC(c4ccc(F)cc4)CC3)cnc(S(=O)(=O)Nc3ccon3)c2C)c1` [Compound 268, 4-(2-fluoro-5-methoxyphenylamino)-5-[4-(4-fluorophenyl)piperidine-1-carbonyl]-N-(isoxazol-3-yl)-3-methylpyridine-2-sulfonamide], the inhibition at up to 1 µM is no less than 50%.

In the case of `COc1cc(Nc2c(C(=O)N3CCC(c4ccc(F)cc4)CC3)cnc(S(=O)(=O)Nc3ccon3)c2C)ccc1F` [Compound 269, 4-(4-fluoro-3-methoxyphenylamino)-5-[4-(4-fluorophenyl)piperidine-1-carbonyl]-N-(isoxazol-3-yl)-3-methylpyridine-2-sulfonamide], the inhibition at up to 1 µM is no less than 50%.

As to `Cc1c(S(=O)(=O)Nc2ccon2)ncc(C(=O)N2CCC(c3ccc(F)cc3)CC2)c1Nc1ccc(Cl)cc1F` [Compound 270, 4-(4-chloro-2-fluorophenylamino)-5-[4-(4-fluorophenyl)piperidine-1-carbonyl]-N-(isoxazol-3-yl)-3-methylpyridine-2-sulfonamide], the inhibition at up to 1 µM was no less than 50%.

`Cc1c(S(=O)(=O)Nc2ccon2)ncc(C(=O)N2CCC(c3ccc(F)cc3)CC2)c1Nc1cc(Cl)ccc1F` [Compound 271, 4-(5-chloro-2-fluorophenylamino)-5-[4-(4-fluorophenyl)piperidine-1-carbonyl]-N-(isoxazol-3-yl)-3-methylpyridine-2-sulfonamide]: the inhibition at up to 1 µM was no less than 50%.

The record behind these values is US9701689B2, “Substituted pyridines and pyridazines as CCR10 receptor inhibitors” (KYOWA HAKKO KIRIN CO., LTD., priority 2012, dated 2017).
